Results as given in patent US10508109B2 (priority 2015, dated 2019).
Like-named read-outs stand apart in the source and are kept apart here.

Experiments:
[1] = test system: PC14; assay: Cell-based assay, anti-proliferative activity (Cell Counting Kit-8, 72 hours); details: Homo sapiens, read-out: IC50 (μM) PC14
In short: (§1)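 Anti-proliferative IC50 obtained from 96-well cultures treated 72 h with inhibitor at 0–100 micro-M, growth assessed by a CCK-8 colorimetric readout.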

[2] = test system: CCD-18Co; assay: as above; details: Homo sapiens, read-out: IC50 (μM) CCD-18Co
In short: as §1

[3] = test system: HFL1; assay: as above; details: Homo sapiens, read-out: IC50 (μM) HFL1
In short: as §1

[4] = test system: HCT-116; assay: as above; details: Homo sapiens, read-out: IC50 (μM) HCT-116
In short: as §1

[5] = molecular target: SUV39H2 (Homo sapiens (Human), UniProt Q9H5I1); details: read-out: IC50 (μM) Suv 39H2 assay; enzyme assay
Sequence of SUV39H2 (Q9H5I1 whole entry): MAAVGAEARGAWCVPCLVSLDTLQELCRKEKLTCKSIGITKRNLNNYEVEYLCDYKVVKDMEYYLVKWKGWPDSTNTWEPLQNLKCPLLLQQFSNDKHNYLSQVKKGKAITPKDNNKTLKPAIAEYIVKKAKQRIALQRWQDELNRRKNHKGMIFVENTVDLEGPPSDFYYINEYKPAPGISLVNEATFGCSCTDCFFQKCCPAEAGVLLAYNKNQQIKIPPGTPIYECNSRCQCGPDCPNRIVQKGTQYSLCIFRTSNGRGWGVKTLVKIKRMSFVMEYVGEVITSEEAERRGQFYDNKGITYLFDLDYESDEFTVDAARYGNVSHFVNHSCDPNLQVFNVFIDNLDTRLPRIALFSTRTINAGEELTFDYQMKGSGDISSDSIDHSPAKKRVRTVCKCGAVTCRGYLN

[6] = test system: A549; assay: Cell-based assay, anti-proliferative activity (Cell Counting Kit-8, 72 hours); details: Homo sapiens, read-out: IC50 (μM) A549
In short: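 Seed cells in 96-well format; add inhibitors; measure growth by CCK-8 at end of exposure; derive IC50.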

[7] = PC-14, PC14 cells, Cell Counting Kit-8, 72 hours
[8] = CCD-18Co cells, Cell Counting Kit-8, 72 hours
[9] = HFL1 cells, Cell Counting Kit-8, 72 hours
[10] = HCT-116 cells, Cell Counting Kit-8, 72 hours
[11] = A549 cells, Cell Counting Kit-8, 72 hours
[12] = PC-14, PC14 cells, 72 hours, Cell Counting Kit-8
[13] = CCD-18Co cells, 72 hours, Cell Counting Kit-8
[14] = HFL1 cells, 72 hours, Cell Counting Kit-8
[15] = HCT-116 cells, 72 hours, Cell Counting Kit-8
[16] = A549 cells, 72 hours, Cell Counting Kit-8

Work on `COc1cc(OC)c(-c2cn3ccc(N4CCC(NS(C)(=O)=O)CC4)cc3n2)cc1Cl` [Example 128, N-{1-[2-(5-chloro-2,4-dimethoxyphenyl)imidazo[1,2-a]pyridin-7-yl]piperidin-4-yl}methanesulfonamide] yielded an IC50 [1, 7] of 1.8 µM, an IC50 [2, 8] of 1.1 µM and an IC50 [3, 9] of 0.58 µM. It also gave an IC50 [4, 10] of 4.5 µM, an IC50 [5] of 0.00883 µM and an IC50 [6, 11] of 1.5 µM.
For `COc1cc(C)c(Cl)cc1-c1cn2ccc(N3CCN(S(=O)(=O)C4CC4)CC3)cc2n1` [Example 229, 2-(5-chloro-2-methoxy-4-methylphenyl)-7-(4-(cyclopropylsulfonyl)-piperazin-1-yl)imidazo[1,2-a]pyridine], the IC50 [1, 12] was 0.8 µM, the IC50 [2, 13] was 3.8 µM and the IC50 [3, 14] was 2.3 µM. The IC50 [4, 15] was 2.1 µM, the IC50 [5] was 0.0775 µM and the IC50 [6, 16] was 1.9 µM.
Work on `COc1cc(OC)c(-c2cn3ccc(OC4CCN(c5ccnc(N)n5)CC4)cc3n2)cc1Cl` [Example 284, 4-(4-((2-(5-chloro-2,4-dimethoxyphenyl)imidazo[1,2-a]pyridin-7-yl)oxy)-piperidin-1-yl)pyrimidin-2-amine] yielded an IC50 [1, 12] of 0.98 µM, an IC50 [2, 13] of 1.3 µM and an IC50 [3, 14] of 1.1 µM. For the same molecule, the IC50 [4, 15] was 0.71 µM, the IC50 [5] was 0.0918 µM and the IC50 [6, 16] was 1.5 µM.
With `COc1cc(OC)c(-c2cn3ccc(N4CCCC4)cc3n2)cc1C#N` [Example 49, 2,4-dimethoxy-5-[7-(pyrrolidin-1-yl)imidazo[1,2-a]pyridin-2-yl]benzonitrile] the IC50 ([1]; PC-14, 72 h) was 1.3 µM, the IC50 ([2]; CCD-18Co, 72 h) was 1.1 µM and the IC50 ([3]; HFL1, 72 h) was 0.8 µM. It also gave an IC50 ([4]; HCT-116, 72 h) of 1.3 µM, an IC50 [5] of 0.00371 µM and an IC50 ([6]; A549, 72 h) of 1.5 µM.
Work on `COc1cc(OC)c(-c2cn3ccc(N4CCC(NS(=O)(=O)C(F)(F)F)CC4)cc3n2)cc1Cl` [Example 176, N-{1-[2-(5-chloro-2,4-dimethoxyphenyl)imidazo[1,2-a]pyridin-7-yl]piperidin-4-yl}-1,1,1-trifluoromethanesulfonamide] yielded an IC50 [1, 7] of 0.75 µM, an IC50 [2, 8] of 0.53 µM and an IC50 [3, 9] of 0.36 µM. The IC50 [4, 10] was 0.55 µM, the IC50 [5] was 0.0641 µM and the IC50 [6, 11] was 0.51 µM.
In the case of `COc1cc(OC)c(-c2cn3ccc(N4CCN(C(=O)OC(C)(C)C)C(C)C4)cc3n2)cc1Cl` (stereo not drawn) [Example 275, tert-butyl 4-(2-(5-chloro-2,4-dimethoxyphenyl)imidazo[1,2-a]pyridin-7-yl)-2-methylpiperazine-1-carboxylate], the IC50 [1, 12] is reported as 0.87 µM, the IC50 [2, 13] is reported as 1.4 µM and the IC50 [3, 14] is reported as 1.1 µM. For the same molecule, the IC50 [4, 15] was 1.4 µM, the IC50 [5] was 0.00333 µM and the IC50 [6, 16] was 1.3 µM.
`CCS(=O)(=O)N1CCN(c2ccn3cc(-c4cc(Cl)c(OC)cc4OC)nc3c2)CC1` [Example 172, 2-(5-chloro-2,4-dimethoxyphenyl)-7-[4-(ethylsulfonyl)piperazin-1-yl]imidazo[1,2-a]pyridine] showed an IC50 [1, 7] of 1.6 µM, an IC50 [2, 8] of 1.8 µM and an IC50 [3, 9] of 1.8 µM. The IC50 [4, 10] was 1.2 µM, the IC50 [5] was 0.0125 µM and the IC50 [6, 11] was 1.9 µM.
Work on `COc1cc(OC)c(-c2cn3ccc(NC(=O)CCNC(=O)OC(C)(C)C)cc3n2)cc1Cl` [Example 157, tert-butyl (3-{[2-(5-chloro-2,4-dimethoxyphenyl)imidazo[1,2-a]pyridin-7-yl]amino}-3-oxopropyl)carbamate] yielded an IC50 [1, 7] of 6.2 µM, an IC50 [2, 8] of 7.1 µM and an IC50 [3, 9] of 4.7 µM. It also gave an IC50 [4, 10] of 6.8 µM, an IC50 [5] of 0.0628 µM and an IC50 [6, 11] of 7.5 µM.
`COC(=O)Nc1ccn2cc(-c3cc(Cl)c(OC)cc3OC)nc2c1` [Example 183, methyl [2-(5-chloro-2,4-dimethoxyphenyl)imidazo[1,2-a]pyridin-7-yl]-carbamate] was tested, and the IC50 [1, 7] was 1.9 µM, the IC50 [2, 8] was 1.8 µM and the IC50 [3, 9] was 2 µM. For the same molecule, the IC50 [4, 10] was 2.1 µM, the IC50 [5] was 0.0241 µM and the IC50 [6, 11] was 1.8 µM.
In the case of `COc1cc(OC)c(-c2cn3ccc(-c4ccc(C(=O)N5CCC(N)CC5)cc4)cc3n2)cc1Cl` [Example 259, (4-aminopiperidin-1-yl)(4-(2-(5-chloro-2,4-dimethoxyphenyl)imidazo[1,2-a]pyridin-7-yl)phenyl)methanone], the IC50 [1, 12] is reported as 7.9 µM, the IC50 [2, 13] is reported as 10 µM and the IC50 [3, 14] is reported as 8.6 µM. The IC50 [4, 15] was 7.3 µM, the IC50 [5] was 0.0586 µM and the IC50 [6, 16] was 10 µM.
